Laboratory results as given in patent US9334283B2, “CCR1 antagonists and methods of use thereof” (Millennium Pharmaceuticals, Inc., priority 2002, dated 2016).

Columns and labels:
[1] = tested on: other G protein-coupled receptors and ion channels; test: Selectivity on other G protein-coupled receptors and ion channels; details: assayed on other G protein-coupled receptors and ion channels; comparison in words
[2] = molecular target: T1, CCR1 (125I-MIP-1α binding to THP-1 cell membranes) (Homo sapiens, UniProt P32246); test: THP-1 cell membrane 125I-MIP-1α binding assay; details: 0.1 to 0.2 nM 125I-MIP-1α, 60 min at room temperature, read-out: Inhibition of 125I-MIP-1α Binding to THP-1 Cell Membranes (Ki (nM))
T1 construct: Membranes were prepared from THP-1 cells (ATCC. #TIB202); host or cells: THP-1 cells (membrane preparation)
T1 sequence (P32246 1-355): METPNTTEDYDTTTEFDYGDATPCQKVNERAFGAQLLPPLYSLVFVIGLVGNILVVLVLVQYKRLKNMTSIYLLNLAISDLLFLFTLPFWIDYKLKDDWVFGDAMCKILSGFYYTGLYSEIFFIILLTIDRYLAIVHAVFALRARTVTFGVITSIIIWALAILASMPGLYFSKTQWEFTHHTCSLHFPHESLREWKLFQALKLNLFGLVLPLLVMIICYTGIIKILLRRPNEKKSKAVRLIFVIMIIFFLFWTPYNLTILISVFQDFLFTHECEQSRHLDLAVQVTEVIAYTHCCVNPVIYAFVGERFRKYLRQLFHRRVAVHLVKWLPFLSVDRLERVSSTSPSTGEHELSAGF
Text: The activity of compounds of the present invention can be assessed using suitable assays, such as receptor binding assays or chemotaxis assays. For example, as described in the Examples, small molecule antagonists of […] binding have been identified utilizing THP-1 cells membranes. Specifically, a high through-put receptor binding assay, which monitors ^125I-MIP-1α binding to THP-1 cell membranes, was used to identify small molecule antagonists which block binding of MIP-1α. Compounds of the present invention can also be identified by virtue of their ability to inhibit the activation steps triggered by binding of a chemokine (e.g., CCL2 (MCP-1) CCL3 (MIP-1α), CCL4 (MIP-1β), CCL5 (RANTES), CCL7 (MCP-3), CCL8 (MCP-2), CCL13 (MCP-4), CCL14 (HCC-1), CCL15 (Lkn-1), CCL23 (MPIF-1)) to its receptor (CCR-1), such as chemotaxis, integrin activation and granule mediator release. They can also be identified by virtue of their ability to block chemokine (e.g., CCL2 (MCP-1) CCL3 (MIP-1α), CCL4 (MIP-1β), CCL5 (RANTES), CCL7 (MCP-3), CCL8 (MCP-2), CCL13 (MCP-4), CCL14 (HCC-1), CCL15 (Lkn-1), CCL23 (MPIF-1)) induced chemotaxis of, for example, HL-60 cells, T-cells, peripheral blood mononuclear cells or eosinophils.
Membranes were prepared from THP-1 cells (ATCC. #TIB202). Cells were harvested by centrifugation, washed twice with PBS (phosphate-buffered saline), and the cell pellets were frozen at −70 to −85° C. The frozen pellet was thawed in ice-cold lysis buffer consisting of 5 mM HEPES (N-2-hydroxyethylpiperazine-N′-2-ethane-sulfonic acid) pH 7.5, 2 mM EDTA (ethylenediaminetetraacetic acid), 5 μg/ml each aprotinin, leupeptin, and chymostatin (protease inhibitors), and 100 μg/ml PMSF (phenyl methane sulfonyl fluoride—also a protease inhibitor), at a concentration of 1 to 5×10^7 cells/ml. This procedure results in cell lysis. The suspension was mixed well to resuspend all of the frozen cell pellet. Nuclei and cell debris were removed by centrifugation of 400×g for 10 minutes at 4° C. The supernatant was transferred to a fresh tube and the membrane fragments were collected by centrifugation at 25,000×g for 30 minutes at 4° C. The supernatant was aspirated and the pellet was resuspended in freezing buffer consisting of 10 mM HEPES pH 7.5, 300 mM sucrose, 1 μg/ml each aprotinin, leupeptin, and chymostatin, and 10 μg/ml PMSF (approximately 0.1 ml per each 10^8 cells). All clumps were resolved using a minihomogenizer, and the total protein concentration was determined using a protein assay kit (Bio-Rad, Hercules, Calif., cat #500-0002). […]
Binding Assays utilized the membranes described above. […] The filters were rinsed with approximately 600 μl of binding buffer containing 0.5 M NaCl, dried, and the amount of bound radioactivity was determined by scintillation counting.

[3] = tested on: neutrophil recruitment in response to murine MIP-1α; test: In vivo efficacy model: neutrophil recruitment in response to MIP-1α (MPO activity in skin biopsies); design: species or system guinea pig; details: for ED50 / oral bioavailability and efficacy in comparison to the Reference Example: oral; for ED50: 30 minutes prior to intradermal murine MIP-1α (100 pmol/site), read-out: Efficacy: Guinea Pig Neutrophil Recruitment (ED50 (mg/kg)); for oral bioavailability and efficacy in comparison to the Reference Example: guinea pig, comparison in words
Protocol: An animal model of neutrophil recruitment in response to MIP-1α was used to evaluate the biological/pharmacodynamic activity of the compounds. Compounds were administered to female Hartley guinea pigs orally (doses ranged from about 0.5 mg/kg to about 5.0 mg/kg) 30 minutes prior to intradermal injections of murine MIP-1α (100 pmol/site) or phosphate buffered saline (PBS). Skin punch biopsies were taken 5 hours later and processed for myeloperoxidase (MPO) measurements. MPO activity was used as an indicator for neutrophil recruitment to the injection site.

[4] = Cavia porcellus, Neutrophil, female Hartley guinea pigs, MPO at 5 hours

Row | Structure (SMILES) | selectivity compared to structurally related compounds [1] | Ki [2] [nM] | ED50 [3, 4] [mg/kg] | oral bioavailability and efficacy in comparison to the Reference Example [3] | inhibition at 2.5 mg/kg ([3]; Cavia porcellus, Neutrophil, at 2.5 mg/kg oral, female Hartley guinea pigs, intradermal murine MIP-1α, MPO at 5 hours, read-out: Efficacy: Guinea Pig Neutrophil Recruitment, % inhibition) [%]
1 | CC1(C)CN(CCC=C2c3cc(C(=O)O)ccc3OCc3ncccc32)CC[C@]1(O)c1ccc(Cl)cc1 [Example 1, (S)-5-{3-[4-(4-Chloro-phenyl)-4-hydroxy-3,3-dimethyl-piperidin-1-yl]-propylidene}-5,11-dihydro-10-oxa-1-aza-dibenzo[a,d]cycloheptene-7-carboxylic acid] | greater selectivity | 2.3 | 0.12 | greater oral bioavailability and efficacy | 
2 | CC1(C)CN(CC/C=C2/c3cc(C(=O)O)ccc3OCc3ncccc32)CCC1(O)c1ccc(Cl)cc1 (racemic) [Example 3, racemic-5-{3-[4-(4-Chloro-phenyl)-4-hydroxy-3,3-dimethyl-piperidin-1-yl]-propylidene}-5,11-dihydro-10-oxa-1-aza-dibenzo[a,d]cycloheptene-7-carboxylic acid] | greater selectivity | 3 |  | greater oral bioavailability and efficacy | 99
3 | O=C(O)c1ccc2c(c1)/C(=C/CCN1CCC(O)(c3ccc(Cl)cc3)CC1)c1cccnc1CO2 [Reference Example, reference compound] |  | 7.8 | 3.6 |  | 
4 | CC1(C)CN(CCC=C2c3cc(C(=O)O)ccc3OCc3ncccc32)CC[C@@]1(O)c1ccc(Cl)cc1 [Example 2, (R)-5-{3-[4-(4-Chloro-phenyl)-4-hydroxy-3,3-dimethyl-piperidin-1-yl]-propylidene}-5,11-dihydro-10-oxa-1-aza-dibenzo[a,d]cycloheptene-7-carboxylic acid] |  | > 1000 |  |  | 
